Source: patent publication US20240092761A1, “QUINAZOLINE COMPOUNDS AND METHODS OF USE” (IAMBIC THERAPEUTICS, INC., priority 2022, published 2024)

Tests used:
OVCAR-3 cells = assay: Cell Growth Inhibition, OVCAR-3 (CellTiterGlo, 6 days); assay type: cell-based; conditions: OVCAR-3, 6-day treatment, CellTiterGlo 2.0
Excerpt: (§1) MCF-7 and OVCAR-3 cells were used to evaluate the anti-proliferation activity of the CDK inhibitors. MCF-7 (ATCC, HTB-22) cells are epithelial cells from a patient with ER+ metastatic adenocarcinoma. OVCAR-3 (ATCC, HTB-161) cells were derived from malignant ascites of a patient with ovarian cancer and are known to have CCNE1 amplification. Both cell lines were maintained in RPMI media supplemented with 10% fetal bovine serum. For cell growth inhibition assay, CDK inhibitors in DMSO solution were dispensed with either Echo 655 (Beckman Coulter) or Tecan D300e (HP) into 384-well plates (Corning #3765) and the 384-well plates were UV-sterilized prior to the assay. The inhibitors were typically tested in the 10-10,000 nM concentration range with half-log serial dilutions. MCF-7 or OVCAR-3 (500 cells/30 μL/well) were added to each well using Multidrop Combi (ThermoFisher) using standard cassettes. The assay plates with cells were cultured at 37° C., 5% CO2 for 6 days. At the end of the 6-day treatment, 30 μL of CellTiterGlo 2.0 (Promega) was added to each well and the luminescent signal was read using CLARIOstar plus (BMG). The percentage of cell growth inhibition (% CGI) was calculated using the following formula % CGI=100−100×luminescencesample/luminescencecontrol. The half maximal inhibitory concentration (IC50) was determined by nonlinear curve fitting (four parameters, variable slope).

CDK4/Cyclin D1 = CDK4/Cyclin D1 (Homo sapiens (Human), UniProt P11802); assay: CDK4/Cyclin D1 CHEF Assay (AQT0258 peptide); assay type: biochemical; conditions: 200 uM ATP, read-out: CDK4/ CyclinD1 AQT IC50
CDK4/Cyclin D1, sequence (P11802 whole entry): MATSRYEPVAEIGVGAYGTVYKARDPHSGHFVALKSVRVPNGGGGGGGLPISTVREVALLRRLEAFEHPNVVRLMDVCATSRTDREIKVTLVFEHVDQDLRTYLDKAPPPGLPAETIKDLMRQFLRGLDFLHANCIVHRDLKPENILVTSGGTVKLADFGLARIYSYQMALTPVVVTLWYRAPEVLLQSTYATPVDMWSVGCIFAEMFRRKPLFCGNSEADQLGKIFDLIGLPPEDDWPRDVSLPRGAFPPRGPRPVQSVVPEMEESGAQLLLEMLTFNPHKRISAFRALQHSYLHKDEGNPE
CDK4/Cyclin D1, sequence (P24385 whole entry partner): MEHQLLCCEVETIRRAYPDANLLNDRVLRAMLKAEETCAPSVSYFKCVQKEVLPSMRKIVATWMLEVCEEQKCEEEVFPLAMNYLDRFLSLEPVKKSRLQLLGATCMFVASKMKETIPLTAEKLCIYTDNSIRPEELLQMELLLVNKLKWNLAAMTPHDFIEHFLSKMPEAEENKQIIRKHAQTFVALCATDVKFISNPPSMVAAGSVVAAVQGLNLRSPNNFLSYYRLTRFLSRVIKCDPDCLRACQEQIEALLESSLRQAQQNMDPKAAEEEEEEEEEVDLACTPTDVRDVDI
Excerpt: CDK4/Cyclin D1 CHEF Assay
The purpose of CDK4/Cyclin Dl assay is to evaluate the inhibition (% inhibition and IC50 values) of small molecule inhibitors by using a Chelation-Enhance Fluorescence (CHEF) assay. In a CHEF assay, phosphorylation of a peptide substrate results in proportional increase in fluorescence. CHEF kinase assay use peptide substrates containing a synthetic alpha-amino acid with a side chain bearing an 8-hydroxyquinoline derivative (sulfonamido-oxide, Sox). Upon phosphorylation of a nearby serine, threonine or tyrosine and in the presence of Mg(II), the spectral properties of the Sox residue are altered, emitting 485 nm wavelength light when excited with a 360 nm wavelength light source. CDK4/Cyclin D1 catalyzes the phosphoryl transfer to the SOX-labeled substrate peptide AQT0258 from Assayquant Technologies. Typical reaction solutions contained 2% DMSO (+/−inhibitor), 10 mM MgCl2, 1 mM DTT, 200 uM ATP (ATP Km=195.2 uM), 0.012% Brig-35, 10 uM AQT0258 peptide, 0.02% BSA, 1% Glycerol, 0.55 mM EGTA, 2.5 nM CDK4/Cyclin D1 in 54 mM HEPES buffer at pH 7.5. The reaction was initiated with the addition of substrate solution, following a 30-minute pre-incubation of enzyme and inhibitor at 22° C. in the reaction mix. Reactions were allowed to proceed for 3 hrs at 22° C., followed by fluorescence read of the reaction. The IC50 determinations were made from a plot of the fractional velocity as a function of inhibitor concentration fit to the 4 parameters IC50 equation.

CDK6/Cyclin D3 = CDK6/Cyclin D3 (Homo sapiens (Human), UniProt Q00534); assay: CDK6/Cyclin D3 ADP-Glo Kinase Assay; assay type: biochemical; conditions: 100 uM ATP, read-out: CDK6/ CyclinD3 IC50
CDK6/Cyclin D3, sequence (Q00534 whole entry): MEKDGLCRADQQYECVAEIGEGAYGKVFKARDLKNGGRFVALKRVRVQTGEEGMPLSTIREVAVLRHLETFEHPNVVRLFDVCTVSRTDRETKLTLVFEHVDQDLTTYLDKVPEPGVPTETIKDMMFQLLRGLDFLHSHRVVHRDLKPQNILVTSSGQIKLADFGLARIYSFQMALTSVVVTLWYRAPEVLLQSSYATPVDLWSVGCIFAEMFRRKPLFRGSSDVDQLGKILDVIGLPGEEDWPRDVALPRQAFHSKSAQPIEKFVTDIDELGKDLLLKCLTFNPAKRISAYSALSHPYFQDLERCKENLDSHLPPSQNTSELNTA
CDK6/Cyclin D3, sequence (P30281 whole entry partner): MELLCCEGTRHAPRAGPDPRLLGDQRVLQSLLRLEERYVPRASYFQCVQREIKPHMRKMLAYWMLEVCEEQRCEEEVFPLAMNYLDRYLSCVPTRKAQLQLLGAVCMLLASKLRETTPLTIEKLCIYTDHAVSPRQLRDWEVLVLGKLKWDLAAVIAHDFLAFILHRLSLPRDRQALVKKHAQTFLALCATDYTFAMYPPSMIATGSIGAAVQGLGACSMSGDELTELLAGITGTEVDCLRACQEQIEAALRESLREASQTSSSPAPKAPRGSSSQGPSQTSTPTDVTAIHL
Protocol: CDK6/Cyclin D3 ADP-Glo Kinase Assay
The purpose of the CDK6/Cyclin D3 assay is to evaluate the inhibition (% inhibition and IC50 values) in the presence of small molecule inhibitors by using a Luminescent based ADP-Glo assay. CDK6/Cyclin D3 catalyzes the production of ADP from ATP. ADP-Glo assay monitors ADP producing biochemical reactions. ADP-Glo is performed in 2 steps upon completion of kinase reaction: a combined termination of kinase reaction and depletion of remaining ATP in the first step, and conversion of generated ADP to ATP and the newly produced ATP to light output using luciferase/luciferin reaction in the second step. The luminescent signal generated is proportional to the ADP concentration produced and is correlated with the kinase activity. CDK6/Cyclin D3 was purchased from Carna. […] The assay was initiated with the addition of ATP-containing substrate solution, following a 30-minute pre-incubation of enzyme and inhibitor at room temperature in the reaction mixture. The reaction was stopped after 90 minutes at room temperature by the addition of 10 uL of ADP-GLO Reagent. After a 90-minute incubation, 20 uL of Kinase Detection Reagent was added. Samples were incubated for 40 minutes, after which plate well luminescence was measured on a Envision microplate reader. The IC50 determinations were made from a plot of the fractional velocity as a function of inhibitor concentration fit to the 4 parameters IC50 equation.

CDK1/Cyclin B1 = CDK1/Cyclin B1 (Homo sapiens (Human), UniProt P06493); assay: CDK1/Cyclin B1 ADP-Glo Kinase Assay; assay type: biochemical; conditions: 80 uM ATP
CDK1/Cyclin B1, sequence (P06493 whole entry): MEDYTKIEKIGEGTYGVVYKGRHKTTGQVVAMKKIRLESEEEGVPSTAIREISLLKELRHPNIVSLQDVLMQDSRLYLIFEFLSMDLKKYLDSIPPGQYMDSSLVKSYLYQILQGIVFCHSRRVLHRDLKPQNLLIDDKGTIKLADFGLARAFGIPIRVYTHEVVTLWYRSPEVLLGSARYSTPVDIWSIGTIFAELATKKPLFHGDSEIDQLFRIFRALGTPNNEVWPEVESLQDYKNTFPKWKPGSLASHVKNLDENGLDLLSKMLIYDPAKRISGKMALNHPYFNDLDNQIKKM
CDK1/Cyclin B1, sequence (P14635 whole entry partner): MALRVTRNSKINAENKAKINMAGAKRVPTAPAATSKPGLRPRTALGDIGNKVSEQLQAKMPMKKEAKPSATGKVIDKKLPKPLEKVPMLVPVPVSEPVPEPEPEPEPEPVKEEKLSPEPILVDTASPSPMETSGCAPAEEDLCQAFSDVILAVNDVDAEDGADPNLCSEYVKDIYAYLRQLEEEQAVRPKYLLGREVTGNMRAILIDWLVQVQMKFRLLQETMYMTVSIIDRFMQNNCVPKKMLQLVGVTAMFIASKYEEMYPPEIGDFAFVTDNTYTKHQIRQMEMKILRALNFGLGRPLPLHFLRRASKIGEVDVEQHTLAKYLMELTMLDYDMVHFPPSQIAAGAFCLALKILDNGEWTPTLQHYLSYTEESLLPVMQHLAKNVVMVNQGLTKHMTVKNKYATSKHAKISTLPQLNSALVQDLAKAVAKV
Protocol: CDK1/Cyclin B1 ADP-Glo Kinase Assay
The purpose of CDK1/Cyclin B1 assay is to evaluate the inhibition (% inhibition and IC50 values) of small molecule inhibitors by using a Luminescent based ADP-Glo assay. CDK1/Cyclin B1 catalyzes the production of ADP from ATP. ADP-Glo assay monitors ADP producing biochemical reactions. ADP-Glo is performed in 2 steps upon completion of kinase reaction: a combined termination of kinase reaction and depletion of remaining ATP in the first step, and conversion of generated ADP to ATP and the newly produced ATP to light output using luciferase/luciferin reaction in the second step. The luminescent signal generated is proportional to the ADP concentration produced and is correlated with the kinase activity. CDK1/Cyclin B1 was purchased from Carna (Cat 04-102). Typical reaction solutions (10 uL final reaction volume) contained 2% DMSO (f inhibitor), 10 mM MgCl2, 1 mM EGTA, 0.05% BSA, 2 mM DTT, 80 uM ATP (ATP Km=78.6 uM), 0.01% Brig-35, 0.75 uM substrate, and 4.917 nM CDK1/Cyclin Bl enzyme complex in 50 mM HEPES buffer at pH 7.5. The assay was initiated with the addition of ATP-containing substrate solution, following a 30-minute pre-incubation of enzyme and inhibitor at room temperature in the reaction mixture. The reaction was stopped after 90 minutes at room temperature by the addition of 10 uL of ADP-GLO Reagent. After a 90 minute incubation, 20 uL of Kinase Detection Reagent was added. Samples were incubated for 40 minutes, after which plate well luminescence was measured on a Envision microplate reader. The IC50 determinations were made from a plot of the fractional velocity as a function of inhibitor concentration fit to the 4 parameters IC50 equation.

[1] = target: CDK2/Cyclin E1 full length (Homo sapiens (Human), UniProt P24941); assay: CDK2/Cyclin E1 Full Length ADP-Glo Kinase Assay; assay type: biochemical; conditions: 20 uM ATP, read-out: CDK2/ CyclinE1 IC50
Protocol: CDK2/Cyclin E1 Full Length ADP-Glo Kinase Assay
The purpose of CDK2/Cyclin E1 assay is to evaluate the inhibition (% inhibition and IC50 values) of small molecule inhibitors by using a Luminescent based ADP-Glo assay. CDK2/Cyclin E1 full length catalyzes the production of ADP from ATP. ADP-Glo assay monitors ADP producing biochemical reactions. ADP-Glo is performed in 2 steps upon completion of kinase reaction: a combined termination of kinase reaction and depletion of remaining ATP in the first step, and conversion of generated ADP to ATP and the newly produced ATP to light output using luciferase/luciferin reaction in the second step. The luminescent signal generated is proportional to the ADP concentration produced and is correlated with the kinase activity. CDK2/Cyclin E1 was purchased from Eurofins (Cat 14-475M). Typical reaction solutions (10 uL final reaction volume) contained 2% DMSO (f inhibitor), 10 mM MgCI2, 1 mM EGTA, 0.05% BSA, 2 mM DTT, 20 uM ATP (ATP Km=64.78 uM), 0.01% Brig-35, 0.75 uM substrate, and 0.328 nM wild-type full length CDK2/Cyclin E1 enzyme complex in 50 mM HEPES buffer at pH 7.5. The assay was initiated with the addition of ATP-containing substrate solution, following a 30-minute pre-incubation of enzyme and inhibitor at room temperature in the reaction mixture. The reaction was stopped after 90 minutes at room temperature by the addition of 10 uL of ADP-GLO Reagent. After a 90 minute incubation, 20 uL of Kinase Detection Reagent was added. Samples were incubated for 40 minutes, after which plate well luminescence was measured on a Envision microplate reader. The IC50 determinations were made from a plot of the fractional velocity as a function of inhibitor concentration fit to the 4 parameters IC50 equation.

MCF-7 cells = assay: Cell Growth Inhibition, MCF-7 (CellTiterGlo, 6 days); assay type: cell-based; conditions: MCF-7, 6-day treatment, CellTiterGlo 2.0
Excerpt: as §1

| Structure (SMILES) | IC50 (OVCAR-3 cells; Homo sapiens, 144 h) | IC50 (CDK4/Cyclin D1) | IC50 (CDK6/Cyclin D3) | IC50 (CDK1/Cyclin B1) | IC50 [1] | IC50 (MCF-7 cells; Homo sapiens, MCF7, 144 h) | IC50 (OVCAR-3 cells) | IC50 (MCF-7 cells) |
| --- | --- | --- | --- | --- | --- | --- | --- | --- |
| CS(=O)(=O)N1CC[C@@H](Nc2ncc3cc(C(F)F)cc(N4CC(F)(F)C5(CNC5)C4)c3n2)[C@H](O)C1 (racemic) [Example 118, (3R,4R)-4-((8-(8,8-difluoro-2,6-diazaspiro[3.4]octan-6-yl)-6-(difluoromethyl)quinazolin-2-yl)amino)-1-(methylsulfonyl)piperidin-3-ol] | > 2000 nM | < 200 nM | < 200 nM | 500 to 2000 nM | < 200 nM | – | – | – |
| CC(=O)N1CCC2(CCC(c3cccc4cnc(NC5CCN(S(C)(=O)=O)CC5)nc34)C2)C1 (stereo not shown) [Example 35] | > 2000 nM | – | < 200 nM | 200 to 500 nM | < 200 nM | 500 to 2000 nM | – | – |
| COC1CC2(C1)CC(c1cccc3cnc(NC4CCN(S(C)(=O)=O)CC4)nc13)C2 (stereo not shown) [Example 107, 8-(6-methoxyspiro[3.3]heptan-2-yl)-N-(1-(methylsulfonyl)piperidin-4-yl)quinazolin-2-amine] | – | < 200 nM | < 200 nM | 500 to 2000 nM | < 200 nM | – | – | – |
| Cn1cc(S(=O)(=O)N2CCC(Nc3ncc4cccc(N5CC(O)(C(F)F)C5)c4n3)CC2)cn1 [Example 119, 3-(difluoromethyl)-1-(2-((1-((1-methyl-1H-pyrazol-4-yl)sulfonyl)piperidin-4-yl)amino)quinazolin-8-yl)azetidin-3-ol] | 500 to 2000 nM | < 200 nM | < 200 nM | < 200 nM | < 200 nM | – | – | – |
| CS(=O)(=O)N1CCC(Nc2ncc3cccc(C4CC5(CNCC5(F)F)C4)c3n2)CC1 (stereo not shown) [Example 122, 8-(8,8-difluoro-6-azaspiro[3.4]octan-2-yl)-N-(1-(methylsulfonyl)piperidin-4-yl)quinazolin-2-amine] | – | < 200 nM | < 200 nM | < 200 nM | < 200 nM | – | – | – |

The next lines start with the values.

| IC50 (OVCAR-3 cells; Homo sapiens, 144 h) | IC50 (CDK4/Cyclin D1) | IC50 (CDK6/Cyclin D3) | IC50 (CDK1/Cyclin B1) | IC50 [1] | IC50 (MCF-7 cells; Homo sapiens, MCF7, 144 h) | IC50 (OVCAR-3 cells) | IC50 (MCF-7 cells) | Structure (SMILES) |
| --- | --- | --- | --- | --- | --- | --- | --- | --- |
| > 2000 nM | < 200 nM | < 200 nM | > 2000 nM | < 200 nM | 500 to 2000 nM | – | – | O[C@@H]1COCC[C@H]1Nc1ncc2cc(C(F)F)cc(N3CC(F)(F)C4(CNC4)C3)c2n1 (racemic) [Example 117, (3S,4R)-4-((8-(8,8-difluoro-2,6-diazaspiro[3.4]octan-6-yl)-6-(difluoromethyl)quinazolin-2-yl)amino)tetrahydro-2H-pyran-3-ol] |
| – | 200 to 500 nM | > 2000 nM | > 2000 nM | > 2000 nM | – | > 2000 nM | > 2000 nM | CN1C[C@@H]2C(Nc3ncc4cc(C(F)F)cc(N5CCC6(CCN(S(C)(=O)=O)C6)C5)c4n3)[C@@H]2C1 (stereo partly drawn) [Example 56, 6-(difluoromethyl)-N-((1R,5S,6s)-3-methyl-3-azabicyclo[3.1.0]hexan-6-yl)-8-(7-(methylsulfonyl)-2,7-diazaspiro[4.4]nonan-2-yl)quinazolin-2-amine] |
| 500 to 2000 nM | < 200 nM | < 200 nM | > 2000 nM | < 200 nM | 500 to 2000 nM | – | – | CN1Cc2ccc(Nc3ncc4cc(C(F)F)cc(N5CC6(CN(C)C6)C5)c4n3)cc2C1 [Example 57, 6-(difluoromethyl)-8-(6-methyl-2,6-diazaspiro[3.3]heptan-2-yl)-N-(2-methylisoindolin-5-yl)quinazolin-2-amine] |
| < 200 nM | – | – | < 200 nM | < 200 nM | < 200 nM | – | – | CN1CC2(CC(c3cc(C(F)F)cc4cnc(NC5CCN(S(C)(=O)=O)CC5)nc34)C2)C1 [Example 67, 6-(difluoromethyl)-8-(2-methyl-2-azaspiro[3.3]heptan-6-yl)-N-(1-(methylsulfonyl)piperidin-4-yl)quinazolin-2-amine] |
| – | < 200 nM | < 200 nM | < 200 nM | < 200 nM | – | – | – | COC1CC2(C1)CC(c1cc(C(F)F)cc3cnc(NC4CCN(S(C)(=O)=O)CC4)nc13)C2 (stereo not shown) [Example 108, 6-(difluoromethyl)-8-(6-methoxyspiro[3.3]heptan-2-yl)-N-(1-(methylsulfonyl)piperidin-4-yl)quinazolin-2-amine] |
